In patent publication US20100267561A1, “HERBICIDAL PYRIDAZINONE DERIVATIVES” (priority 2007, published 2010):

Experiments:
Assay in all cases: Test B pre-/postemergence plant response
Type in all cases: in vivo
[1] = system: common ragweed (Ambrosia elation); details: for Ragweed plant response rating: 8 g ai/ha
In short: (§1)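 Preemergence and postemergence (plants 2-18 cm, 1- to 4-leaf stage) applications used test chemicals in a non-phytotoxic solvent with surfactant. Plants were held in a greenhouse 13 to 15 days, then rated visually against controls on a 0-100 scale (0 no effect, 100 complete control).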

[2] = system: yellow nutsedge (Cyperus esculentus); details: for Nutsedge, Yellow plant response rating: 8 g ai/ha
In short: as §1

[3] = system: Russian thistle (Salsola iberica); details: Preemergence
In short: as §1

kochia (Kochia scoparia) = system: kochia (Kochia scoparia)
In short: as §1

corn (Zea mays) = details: for Corn plant response rating: 8 g ai/ha
In short: as §1

[4] = system: catchweed bedstraw (Galium aparine); details: Preemergence
In short: as §1

[5] = system: johnsongrass (Sorghum halepense); details: for Johnsongrass plant response rating: 8 g ai/ha
In short: as §1

[6] = system: cocklebur (Xanthium strumarium); details: for Cocklebur plant response rating: 8 g ai/ha
In short: as §1

[7] = system: velvetleaf (Abutilon theophrasti); details: for Velvetleaf plant response rating: 8 g ai/ha
In short: as §1

[8] = system: blackgrass (Alopecurus myosuroides); details: for Blackgrass plant response rating: 8 g ai/ha
In short: as §1

wild oat (Avena fatua) = details: for Oat, Wild plant response rating: 8 g ai/ha
In short: as §1

[9] = system: large crabgrass (Digitaria sanguinalis); details: for Crabgrass, Large plant response rating: 8 g ai/ha
In short: as §1

[10] = system: woolly cupgrass (Eriochloa villosa); details: for Cupgrass, Woolly plant response rating: 8 g ai/ha
In short: as §1

[11] = system: goosegrass (Eleusine indica); details: for Goosegrass plant response rating: 8 g ai/ha
In short: as §1

[12] = Postemergence, 16 g ai/ha, scale 0 to 100
[13] = Postemergence, 31 g ai/ha, scale 0 to 100, 0 no effect, 100 complete control
[14] = Postemergence, 62 g ai/ha, scale 0 to 100
[15] = Preemergence, 62 g ai/ha, scale 0 to 100
[16] = Preemergence, 31 g ai/ha, 0 to 100 scale, 0 no effect, 100 complete control
[17] = 16 g ai/ha, scale 0 to 100 (0 no effect, 100 complete control)
[18] = 31 g ai/ha, 0 to 100 scale, 0 no effect, 100 complete control
[19] = Preemergence, 16 g ai/ha, scale 0 to 100 (0 no effect, 100 complete control)

CCc1cc(-c2ccc(Cl)c(Cl)c2)nn1-c1c(O)cnn(C)c1=O [Compound 20]
Ragweed plant response rating ([1]; postemergence, 0-100 scale): 0 | Plant response rating, Ragweed [1, 12]: 0 | Plant response rating, Ragweed [1, 13]: 0 | Plant response rating, Ragweed [1, 14]: 0 | Plant response rating, Ragweed [1, 15]: 0 | Ragweed plant response rating ([1]; Preemergence, scale 0 to 100): 0 | Nutsedge, Yellow plant response rating ([2]; postemergence, 0-100 scale): 0 | Plant response rating, Nutsedge, Yellow [2, 12]: 0 | Plant response rating, Nutsedge, Yellow [2, 13]: 0 | Plant response rating, Nutsedge, Yellow [2, 14]: 0 | Plant response rating, Nutsedge, Yellow [2, 16]: 0 | Plant response rating, Nutsedge, Yellow [2, 15]: 0 | Nutsedge, Yellow plant response rating ([2]; Preemergence, scale 0 to 100): 0 | Plant response rating, Russian Thistle [3, 17]: 0 | Plant response rating, Russian Thistle [3, 18]: 0 | Plant response rating, Russian Thistle ([3]; 62 g ai/ha, scale 0 to 100): 0 | Kochia plant response rating (kochia (Kochia scoparia); 8 g ai/ha, postemergence, 0-100 scale): 0 | Plant response rating, Kochia (kochia (Kochia scoparia); [12]): 0 | Plant response rating, Kochia (kochia (Kochia scoparia); [13]): 0 | Plant response rating, Kochia (kochia (Kochia scoparia); [14]): 0 | Plant response rating, Kochia (kochia (Kochia scoparia); [19]): 0 | Plant response rating, Kochia (kochia (Kochia scoparia); [16]): 0 | Plant response rating, Kochia (kochia (Kochia scoparia); [15]): 0 | Corn plant response rating (corn (Zea mays); postemergence, 0-100 scale): 0 | Plant response rating, Corn (corn (Zea mays); [12]): 90 | Plant response rating, Corn (corn (Zea mays); [13]): 95 | Plant response rating, Corn (corn (Zea mays); [19]): 5 | Plant response rating, Corn (corn (Zea mays); [16]): 80 | Plant response rating, Corn (corn (Zea mays); [15]): 95 | Corn plant response rating (corn (Zea mays); Preemergence, scale 0 to 100): 0 | Plant response rating, Galium [4, 17]: 0 | Plant response rating, Galium [4, 18]: 50 | Plant response rating, Galium ([4]; 62 g ai/ha, scale 0 to 100): 100 | Galium plant response rating ([4]; 8 g ai/ha, scale 0 to 100): 0 | Johnsongrass plant response rating ([5]; postemergence, 0-100 scale): 30 | Plant response rating, Johnsongrass [5, 12]: 75 | Plant response rating, Johnsongrass [5, 13]: 100 | Plant response rating, Johnsongrass [5, 14]: 100 | Plant response rating, Johnsongrass [5, 19]: 50 | Plant response rating, Johnsongrass [5, 16]: 75 | Plant response rating, Johnsongrass [5, 15]: 95 | Johnsongrass plant response rating ([5]; Preemergence, scale 0 to 100): 0 | Cocklebur plant response rating ([6]; postemergence, 0-100 scale): 0 | Plant response rating, Cocklebur [6, 12]: 0 | Plant response rating, Cocklebur [6, 13]: 0 | Plant response rating, Cocklebur [6, 14]: 0 | Plant response rating, Cocklebur [6, 19]: 0 | Plant response rating, Cocklebur [6, 16]: 0 | Plant response rating, Cocklebur [6, 15]: 0 | Cocklebur plant response rating ([6]; Preemergence, scale 0 to 100): 0 | Velvetleaf plant response rating ([7]; postemergence, 0-100 scale): 0 | Plant response rating, Velvetleaf [7, 12]: 0 | Plant response rating, Velvetleaf [7, 13]: 0 | Plant response rating, Velvetleaf [7, 14]: 0 | Plant response rating, Velvetleaf [7, 19]: 0 | Plant response rating, Velvetleaf [7, 16]: 0 | Plant response rating, Velvetleaf [7, 15]: 0 | Velvetleaf plant response rating ([7]; Preemergence, scale 0 to 100): 0 | Blackgrass plant response rating ([8]; postemergence, 0-100 scale): 30 | Plant response rating, Blackgrass [8, 12]: 50 | Plant response rating, Blackgrass [8, 14]: 60 | Plant response rating, Blackgrass [8, 16]: 90 | Plant response rating, Blackgrass [8, 15]: 90 | Blackgrass plant response rating ([8]; Preemergence, scale 0 to 100): 10 | Oat, Wild plant response rating (wild oat (Avena fatua); postemergence, 0-100 scale): 50 | Plant response rating, Oat, Wild (wild oat (Avena fatua); [12]): 90 | Plant response rating, Oat, Wild (wild oat (Avena fatua); [13]): 90 | Plant response rating, Oat, Wild (wild oat (Avena fatua); [14]): 90 | Plant response rating, Oat, Wild (wild oat (Avena fatua); [19]): 0 | Plant response rating, Oat, Wild (wild oat (Avena fatua); [16]): 50 | Plant response rating, Oat, Wild (wild oat (Avena fatua); [15]): 60 | Oat, Wild plant response rating (wild oat (Avena fatua); Preemergence, scale 0 to 100): 0 | Crabgrass, Large plant response rating ([9]; postemergence, 0-100 scale): 5 | Plant response rating, Crabgrass, Large [9, 12]: 70 | Plant response rating, Crabgrass, Large [9, 13]: 85 | Plant response rating, Crabgrass, Large [9, 14]: 90 | Plant response rating, Crabgrass, Large [9, 19]: 50 | Plant response rating, Crabgrass, Large [9, 16]: 50 | Plant response rating, Crabgrass, Large [9, 15]: 60 | Crabgrass, Large plant response rating ([9]; Preemergence, scale 0 to 100): 0 | Cupgrass, Woolly plant response rating ([10]; postemergence, 0-100 scale): 45 | Plant response rating, Cupgrass, Woolly [10, 12]: 90 | Plant response rating, Cupgrass, Woolly [10, 13]: 90 | Plant response rating, Cupgrass, Woolly [10, 14]: 100 | Plant response rating, Cupgrass, Woolly [10, 19]: 30 | Plant response rating, Cupgrass, Woolly [10, 16]: 50 | Plant response rating, Cupgrass, Woolly [10, 15]: 98 | Cupgrass, Woolly plant response rating ([10]; Preemergence, scale 0 to 100): 0 | Goosegrass plant response rating ([11]; postemergence, 0-100 scale): 5 | Plant response rating, Goosegrass [11, 12]: 20 | Plant response rating, Goosegrass [11, 13]: 65 | Plant response rating, Goosegrass [11, 14]: 80 | Plant response rating, Goosegrass [11, 19]: 0 | Plant response rating, Goosegrass [11, 15]: 70 | Goosegrass plant response rating ([11]; Preemergence, scale 0 to 100): 0
